Test results as given in US10438128B2, “Treatment of autoimmune and inflammatory diseases with the arsenic compounds AS2O3 and/or AS2O5 administered locally” (CENTRE NATIONAL DE LA RECHERCHE SCIENTIFIQUE (CNRS), priority 2013, dated 2019).

Columns and labels:
MRL/lpr mice [1] = assay: Experiment 4: gradual decrease in number of weekly topical applications of As2O5; assay type: in vivo, mouse
Method: Methods: Severe skin lesions and cutaneous necrotizing vasculitis present at time t0 in 10 MRL/lpr mice 4 to 5 months in age were treated by applying a compress (or a brush) impregnated with a solution of the arsenic compound As2O5 at the concentration of 0.5 mg/ml.

MRL/lpr mice [2] = assay: Experiment 5: systemic (intraperitoneal) treatment of skin lesions in MRL/lpr mice with As2O5; assay type: in vivo, mouse
Method: Methods: MRL/lpr mice (6 females and 6 males, 4 to 5 months of age) presenting severe lupus-type skin lesions and cutaneous necrotizing vasculitis (time t0 FIGS. 8A and 8B) were treated 5 times per week (Monday to Friday), for 3 or 4 weeks, by intraperitoneal injections of 0.1 ml per 10 g of mouse of a solution of arsenic As2O5 at the concentration of 0.5 mg/ml. The control animals were mice of the same age and sex treated with the excipient.

MRL/lpr mice [3] = assay: Experiment 3: topical treatment of skin lesions in MRL/lpr mice with As2O5; assay type: in vivo, mouse; details: 0.5 mg/ml
Method: Methods: The arsenic compound As2O5 is first dissolved at a high concentration (10 to 15 mg/ml) in distilled water until a clear and colorless solution is obtained. The solution is made sterile and free of particles by filtration on a 0.22 μm filter. The stock As2O5 solution thus obtained is then diluted in phosphate buffer or sterile physiological saline so as to obtain a concentration between 0.5 mg/ml for use in vivo. The stock solution of the arsenic compound As2O5 is preserved for 1 to 3 months in the refrigerator (4° C.), while the dilute solution is preserved for only 5 days at 4° C. and away from light.
MRL/lpr mice (12 females and 12 males, 4 to 5 months of age) presenting severe lupus-type skin lesions, and for some cutaneous necrotizing vasculitis (time t0 in FIG. 6), were treated 5 times per week (Monday to Friday), for 8 weeks, by applying on the tissue lesions a compress (or a brush) impregnated with a solution of arsenic As2O5 at concentrations of 0.5 mg/ml. The control animals were mice of the same age and sex treated with the excipient.

MRL/lpr mice [4] = assay: Experiment 6: systemic treatment with suboptimal As2O3, As2O5 or the combination; assay type: in vivo, mouse; details: suboptimal 0.12 mg/ml, 5 times/week, 8 weeks
Method: (§1) Methods: MRL/lpr mice (males and females) presenting severe lupus-type skin lesions and cutaneous necrotizing vasculitis were treated 5 times per week, for 8 weeks, by administering an aqueous solution containing either the arsenic compound As2O3 or the compound As2O5 or a mixture of both compounds As2O3+As2O5 or phosphate buffer (PBS) as negative control. Weakly effective doses (suboptimal) of As2O3 or As2O5 were voluntarily used. The arsenic compounds were administered in aqueous form using compresses or a brush for local treatment or an intraperitoneal injection for systemic treatment.
(§2) At the conclusion of the treatment, the blood of each animal was sampled in order to quantify in the serum the levels of autoantibodies (anti-DNA, rheumatoid factor) and cytokines involved in the disease. Skin from the back of each animal was sampled for histological analysis and for analysis of the nature of the inflammatory infiltrate after isolating the cells using enzymatic methods, their counts under the microscope and their analyses by flow cytometry using fluorescent antibodies specific to leukocytes.

[5] = cited from earlier work
MRL/lpr mice [6] = assay: Experiment 6: local treatment with suboptimal As2O3, As2O5 or the combination; assay type: in vivo, mouse; details: suboptimal 0.12 mg/ml, 5 applications/week, 8 weeks
Method: as §1, §2

[7] = ratio to As2O3; cited from earlier work
MRL/lpr mice [8] = assay: Experiment 1: topical treatment of skin lesions in MRL/lpr mice with As2O3; assay type: in vivo, mouse; details: 0.5 mg/ml
Description: MRL/lpr mice spontaneously develop disseminated lupus erythematosus, rheumatoid polyarthritis and Sjögren's syndrome characterized by dermatological, vascular, renal, pulmonary, articular and ocular damage due to lymphoid cell infiltrates. As in man, a strong sexual dimorphism is observed in MRL/lpr mice, the female mice presenting an earlier and more severe pathology than the males and dying earlier. The disease begins around the age of 8 weeks and causes the death of the mice, on average, at around 18 weeks of age for the females and 22 weeks for the males, the average lifespan of a normal mouse being 2 years.
Methods: The solubility of arsenic compounds depends mainly on the pH and oxidation-reduction conditions and the temperature of the excipient. Since the arsenic compound As2O3 is poorly water soluble, it is first dissolved at a high concentration (60 to 70 mg/ml) in dilute alkaline solution (0.5 or 1 M) and gently heated until a clear and colorless solution is obtained. This solution is made free of particles and sterile by filtration on a 0.22 μm filter. The stock As2O3 solution thus obtained is then diluted in phosphate buffer or sterile physiological saline at the concentration varying from 0.5 mg/ml for use in vivo. The stock solution of the arsenic compound As2O3 is preserved from 1 to 3 months in the refrigerator (4° C.), whereas the dilute solution is preserved only 5 days at 4° C. and away from light.
MRL/lpr mice (10 females and 10 males per group, aged 4 to 5 months) presenting severe lupus-type skin lesions, and for some cutaneous necrotizing vasculitis, were treated, 3 or 5 times per week depending on the experiment (from Monday to Friday), for 8 weeks, by application on the tissue lesions of a compress (or a brush) impregnated with arsenic As2O3 solution at concentrations of 0.5 mg/ml. The control animals were mice, of the same age and sex, treated with the excipient.

[9] = 20° C.; cited from earlier work
MRL/lpr mice [10] = assay: Experiment 2: gradual decrease in number of weekly topical applications of As2O3; assay type: in vivo, mouse
Method: Methods: Severe skin lesions and cutaneous necrotizing vasculitis present before treatment (time t0 in FIGS. 3, 4 and 5) in 15 4-month-old MRL/lpr mice were treated by applying a compress (or a brush) impregnated with a solution of the arsenic compound As2O3 at the concentration of 0.5 mg/ml. The number of applications per week varied from 2 to 5 depending on the experiment. Similarly, the total duration of the topical treatment varied from 7 to 32 weeks.

Compound: O=[As](=O)O[As](=O)=O [As2O5, arsenic pentoxide]
- relapse or rebound of the disease at a single application per week (MRL/lpr mice [1]; 5 weeks, 1 application/week): no relapse or rebound
- time to stop development of tissue lesions (MRL/lpr mice [1]; front-line treatment, 5 applications/week): ≤ 2 weeks
- skin lesions after 2 further weeks at 2 applications per week (MRL/lpr mice [1]; topical, 0.5 mg/ml): nearly disappeared
- inflammatory skin and vasculitis lesions after 2 weeks (MRL/lpr mice [1]; topical, 0.5 mg/ml, 5 applications/week): ceased
- survival after the beginning of the treatment (majority of animals) (MRL/lpr mice [1]; topical, schedule reduced from 5 to 1 application/week): more than 8 weeks
- regrowth of hair (regeneration of lesioned skin tissue) (MRL/lpr mice [2]): nearly complete regrowth of hair
- undesirable effect (nonspecific immunosuppression, tissue toxicity or premature death) (MRL/lpr mice [2]; 0.5 mg/ml solution): no undesirable effect
- destruction of skin after 3 or 4 weeks of treatment (MRL/lpr mice [2]; 0.1 ml per 10 g of 0.5 mg/ml, 5 times/week): strongly regressed or even nearly disappeared
- regrowth of hair (regeneration of lesioned skin tissue) (MRL/lpr mice [3]): nearly complete regrowth of hair
- destruction of the skin in first week of treatment (MRL/lpr mice [3]; 5 applications/week): ceased
- skin lesions after 4 weeks of treatment (MRL/lpr mice [3]; 5 applications/week): almost disappeared
- time until destruction of skin tissue ceased (MRL/lpr mice [3]; 5 applications/week): less than 2 weeks
- undesirable effect (nonspecific immunosuppression, tissue toxicity or premature death) (MRL/lpr mice [3]; 8 weeks): no undesirable effect
- cells in lymphocytic/inflammatory infiltrate of back skin (FIG. 9B) (MRL/lpr mice [4]): still high number of cells
- oral lethal dose for man [5]: 5 to 50 mg/kg
- cells in lymphocytic/inflammatory infiltrate of back skin (FIG. 9A) (MRL/lpr mice [6]): still high number of cells
- inflammatory skin lesions (FIG. 10) (MRL/lpr mice [6]): presence of severe skin lesions
- toxicity relative to As2O3 [7]: about 1/60

Compound: arsenic trioxide [As2O3]
- regrowth of hair (skin tissue regeneration) (MRL/lpr mice [8]): nearly complete regrowth of hair
- tissue lesions after 8 weeks with 3 weekly applications (MRL/lpr mice [8]; 3 applications/week, less severe lesions, female mice): significant decrease
- tissue destruction after 2 weeks of treatment (MRL/lpr mice [8]; 5 applications/week, 2 weeks): ceased and even regressed
- inflammatory skin lesions after 8 weeks of treatment (MRL/lpr mice [8]; 5 applications/week, 8 weeks): nearly completely disappear
- undesirable effect (nonspecific immunosuppression, tissue toxicity or premature death) (MRL/lpr mice [8]; 8 weeks): No undesirable effect
- solubility in water [9]: 37 mg/mL
- cells in lymphocytic/inflammatory infiltrate of back skin (FIG. 9B) (MRL/lpr mice [4]): still high number of cells
- cells in lymphocytic/inflammatory infiltrate of back skin (FIG. 9A) (MRL/lpr mice [6]): still high number of cells
- inflammatory skin lesions (FIG. 10) (MRL/lpr mice [6]): presence of severe skin lesions
- relapse or rebound of the disease after reduced dosing schedule (MRL/lpr mice [10]; 5/week for 4 weeks, then 3/week for 6 weeks, female mouse): no relapse or rebound
- skin damage after 7 weeks of topical treatment (MRL/lpr mice [10]; 5 applications/week for 2 weeks, then 2/week for 5 weeks): decreased considerably
- age reached by treated mouse (euthanized) (MRL/lpr mice [10]; female, 3.5 months old at t0, treated 32 weeks discontinuously): 1 year
